Source: US20060252807A1, “Novel ortho-terphenyl inhibitors of p38 kinase and methods of treating inflammatory disorders” (Kalypsys, Inc., priority 2005, published 2006)

These compounds were tested against T1, active p38 alpha enzyme (Upstate Biotechnology) (Homo sapiens, UniProt Q16539) (assay: p38α biochemical assay (ATP turnover, luminescent detection, Cambrex PKlight)). Conditions: p38α biochemical assay, Table 1 Biological Activity.
T1 construct: purchased Upstate Biotechnology
Method in brief: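 p38α + MapkapK2 (whole protein substrate) + 1.4 uM ATP final; Tris/MOPS buffer with MgCl2, CaCl2, EGTA, EDTA, glycerol, β-ME, BSA; 2 h at 30C; luminescent detection of remaining ATP.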

T1 sequence (Q16539 whole entry): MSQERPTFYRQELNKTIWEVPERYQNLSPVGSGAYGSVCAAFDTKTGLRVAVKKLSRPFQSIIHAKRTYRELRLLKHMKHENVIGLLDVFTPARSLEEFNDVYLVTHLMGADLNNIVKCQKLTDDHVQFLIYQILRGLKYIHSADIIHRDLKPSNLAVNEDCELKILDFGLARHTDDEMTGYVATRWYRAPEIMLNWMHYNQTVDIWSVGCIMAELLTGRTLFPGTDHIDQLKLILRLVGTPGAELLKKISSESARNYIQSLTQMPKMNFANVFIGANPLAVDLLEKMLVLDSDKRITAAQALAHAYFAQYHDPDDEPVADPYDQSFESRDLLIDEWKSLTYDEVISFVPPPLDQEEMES

SMILES	IC50 [nM]
COc1ccc(Br)c(C(=O)N2CCN(Cc3nc(-c4ccc(F)cc4)c(-c4nc(C(=O)NC(C)C)cs4)o3)CC2)c1 [Example 553]	> 1000
COc1ccc2cc(C(C)C(=O)N3CCN(Cc4nc(-c5ccc(F)cc5)c(-c5nc(C(=O)NC(C)C)cs5)o4)CC3)ccc2c1 (stereo not drawn) [Example 550]	> 1000
Cc1ccc(C(=O)NCc2nc(-c3ccc(F)cc3)c(-c3nc(C(=O)NC(C)C)cs3)o2)cc1Br [Example 293]	> 1000
CC(C)NC(=O)c1csc(-c2c(-c3ccc(F)cc3)noc2CNC(=O)C(C(C)C)N(C)C(=O)OC(C)(C)C)n1 (stereo not drawn) [Example 793]	> 1000
CC(C)NC(=O)c1csc(-c2oc(CN3CCN(C(=O)c4ccc(F)cc4F)CC3)nc2-c2ccc(F)cc2)n1 [Example 396]	> 1000
CC(C)NC(=O)c1csc(-c2c(-c3ccc(F)cc3)noc2CNC(=O)Cc2ccccc2O)n1 [Example 618]	> 1000
CC(C)NC(=O)c1csc(-c2oc(CN3CCN(C(=O)c4cc([N+](=O)[O-])ccc4F)CC3)nc2-c2ccc(F)cc2)n1 [Example 472]	> 1000
CC(C)NC(=O)c1csc(-c2oc(CN3CCN(C(=O)c4ccc(Br)cc4)CC3)nc2-c2ccc(F)cc2)n1 [Example 506]	> 1000
CC(C)NC(=O)c1csc(-c2oc(CN3CCN(C(=O)c4ccc([N+](=O)[O-])cc4Cl)CC3)nc2-c2ccc(F)cc2)n1 [Example 509]	> 1000
CC(C)NC(=O)c1coc(-c2c(-c3ccc(F)cc3)noc2C2CCNCC2)n1 [Example 37, 2-|3-(4-Fluoro-phenyl)-5-piperidin-4-yl-isoxazol-4-yl|-oxazole-4-carboxylic acid isopropylamide]	≤ 1000

Same assay, conditions: p38α kinase; Table 1 Biological Activity

SMILES	IC50 [nM]
COCCNCc1onc(-c2ccc(F)cc2)c1-c1nc(C(=O)NC(C)C)cs1 [Example 1377]	> 1000
CC(C)NC(=O)c1csc(-c2c(-c3ccc(F)cc3)n[nH]c2C2CCN(C(=O)c3ccc4ccccc4c3O)CC2)n1 [Example 959]	> 1000
CC(C)NC(=O)c1csc(-c2c(-c3ccc(F)cc3)noc2CN(Cc2cccnc2)Cc2cccnc2)n1 [Example 1603]	> 1000
Cc1nc(-c2ccc(F)cc2)c(-c2nc(C(=O)Nc3ccc(OC(F)(F)F)cc3)cs2)s1 [Example 2011]	> 1000
CC(C)NC(=O)c1csc(-c2oc(CN(CCO)Cc3ccccc3)nc2-c2ccc(F)cc2)n1 [Example 1234]	> 1000
CC(C)NC(=O)c1csc(-c2c(-c3ccc(F)cc3)noc2CN[C@H](CO)Cc2ccccc2)n1 [Example 1474]	> 1000
Cc1nc(-c2ccc(F)cc2)c(-c2nc(C(=O)NCc3ccccc3)cs2)s1 [Example 1739]	≤ 1000
Cc1cccc(CNC(=O)c2csc(-c3sc(C)nc3-c3ccc(F)cc3)n2)c1 [Example 1751]	≤ 1000
CC(C)NC(=O)c1csc(-c2oc(CN3CCN(c4ccc(Cl)c(Cl)c4)CC3)nc2-c2ccc(F)cc2)n1 [Example 1298]	> 1000
COCC(C)NCc1nc(-c2ccc(F)cc2)c(-c2nc(C(=O)NC(C)C)cs2)o1 (stereo not drawn) [Example 1072]	> 1000
Cc1nc(-c2ccc(F)cc2)c(-c2nc(C(=O)N(CCc3ccccc3)Cc3ccccc3)cs2)s1 [Example 1937]	> 1000
CC(C)NC(=O)c1csc(-c2c(-c3ccc(F)cc3)noc2CNC(=O)C(Cc2ccccc2)NC(=O)OC(C)(C)C)n1 (stereo not drawn) [Example 806]	> 1000
COc1ccc(N2CCN(Cc3nc(-c4ccc(F)cc4)c(-c4nc(C(=O)NC(C)C)cs4)o3)CC2)cc1OC [Example 1302]	> 1000
CC(C)CC(C)NCc1nc(-c2ccc(F)cc2)c(-c2nc(C(=O)NC(C)C)cs2)o1 (stereo not drawn) [Example 1080]	> 1000
CCN(CC)CCNCc1nc(-c2ccc(F)cc2)c(-c2nc(C(=O)NC(C)C)cs2)o1 [Example 1095]	> 1000
CC(C)NC(=O)c1csc(-c2c(-c3ccc(F)cc3)n[nH]c2C2CCN(C(=O)c3cc4ccccc4cc3O)CC2)n1 [Example 958]	> 1000
Cc1nc(-c2ccc(F)cc2)c(-c2nc(C(=O)N3CC(C)OC(C)C3)cs2)s1 (stereo not drawn) [Example 1863]	> 1000
